The source of these data is ChEMBL document CHEMBL1201862, “PubChem BioAssay data set” (2004).

Experiment in all cases: DTP human tumour cell line panel, 48 h
In assay [1] the test system is A498.
Assay [2] concerns A549.
The test system of assay [3] is DMS-273.
In assay [4] the test system is HCT-15.
Assay [5] relates to IGROV-1.
The subject of assay [6] is K562.
Assay [7] relates to LOX IMVI.
For assay [8], the system named is NCI-H460.
Assay [9] concerns OVCAR-5.
Assay [10] has as its system RPMI-8226.
Assay [11] relates to RXF 393.
Assay [12] concerns SF-268.
Assay [13] relates to SK-MEL-2.
The test system of assay [14] is SK-MEL-5.
Assay [15] relates to SW-620.
Assay [16] relates to UO-31.
Assay [17] relates to NCI/ADR-RES.
Assay [18] concerns MCF7.
The subject of assay [19] is PC-3.
For assay [20], the system named is MDA-MB-231.

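These data come from cells grown in 96-well plates and exposed to compound for 48 hours at five concentrations. GI50: concentration for 50% inhibition of growth.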 Active and inactive are the calls of the source. Rule as the data show it: active = GI50 up to about 1.1 µM and inactive = higher.

One may read the GI50 as the concentration at which growth is held to half of that of the control. With `COc1ccc(NC(=O)CC2SC(Nc3ccc(Cl)cc3C)=NC2=O)c([N+](=O)[O-])c1` (stereo not drawn), the GI50 was > 100 µM (inactive) in [1]; > 100 µM (inactive) in assay [2]; > 100 µM (inactive) in assay [3]; over 100 µM in assay [4]; > 100 µM (inactive) in assay [5]; > 100 µM (inactive) in [6]. Further, the GI50 in [7], in [8], in assay [9], in assay [10], in assay [11] and in [12] was > 100 µM (inactive) each time. Moreover, the GI50 in assay [13], in assay [14], in [15] and in assay [16] was > 100 µM (inactive) throughout.

With `NC1=NS(=O)(=O)Nc2nc(-c3ccc(Cl)cc3)[nH]c21`, the GI50 in [1] was > 100 µM (inactive); in assay [2], > 100 µM (inactive); in assay [3] it was > 100 µM (inactive); in [4] it was over 100 µM; in assay [5] it was > 100 µM (inactive); in [6], > 100 µM (inactive). The GI50 in [7] was > 100 µM (inactive); in [8] it was > 100 µM (inactive); in assay [9] it was > 100 µM (inactive); in assay [10], > 100 µM (inactive); in assay [11], > 10 µM (inactive); in [12] it was > 100 µM (inactive). For the same molecule, the GI50 in assay [13], in assay [14], in assay [15] and in assay [16] was > 100 µM (inactive) in each case.

Regarding `Cc1cn(C2OC(C)(CO)C(O)C2O)c(=O)[nH]c1=O` (stereo not drawn), the GI50 in assay [1] was > 100 µM (inactive); in assay [2] it was > 100 µM (inactive); in [3], > 100 µM (inactive); in assay [4], over 100 µM; in assay [5], > 100 µM (inactive); in [6], > 100 µM (inactive). Further, the GI50 in [7], in [8], in [9], in assay [10], in [11] and in [12] was > 100 µM (inactive) each time. In addition, the GI50 in [13], in assay [14], in [15] and in [16] was > 100 µM (inactive) in each case.

Regarding `C=C(NC(=O)C(=C)NC(=O)c1csc(C2=NC3c4csc(n4)C4NC(=O)c5csc(n5)C(C(C)(O)C(C)O)NC(=O)C5CSC(=N5)/C(=C/C)NC(=O)C(C(C)O)NC(=O)c5csc(n5)C3(CC2)NC(=O)C(C)NC(=O)C(=C)NC(=O)C(C)NC(=O)C(C(C)CC)NC2C=Cc3c(C(C)O)cc(nc3C2O)C(=O)OC4C)n1)C(N)=O` (stereo not drawn), the GI50 in [1] was 1.74 µM (inactive); in assay [2], 4.57 µM (inactive); in assay [3], 1.37 µM (inactive); in [4], 4.12 µM; in [5] it was 9.06 µM (inactive); in assay [6] it was 0.726 µM (active). Further, the GI50 in assay [7] is 1.08 µM (active); in [8], 1.72 µM (inactive); in [17], > 58.3 µM (inactive); in assay [9] it was 11.8 µM (inactive); in [10], 0.644 µM (active); in [13], 1.65 µM (inactive). Moreover, the GI50 in assay [14] is 1.34 µM (inactive); in assay [15] it was 0.412 µM (active); in assay [16] it was > 78.3 µM (inactive).

As for `Clc1cc(Cl)c2n[se]nc2c1`, the GI50 is > 100 µM (inactive) in assay [1]; > 100 µM (inactive) in [2]; > 100 µM (inactive) in [3]; over 100 µM in [4]; > 100 µM (inactive) in assay [5]; > 100 µM (inactive) in assay [6]. Also, the GI50 in assay [7] is 69.7 µM (inactive); in [8], > 100 µM (inactive); in [9], > 100 µM (inactive); in assay [10], > 100 µM (inactive); in assay [11], > 100 µM (inactive); in [12] it was > 100 µM (inactive). The GI50 in [13] was 94 µM (inactive); in assay [14], > 100 µM (inactive); in assay [15], > 100 µM (inactive); in assay [16], > 100 µM (inactive).

Regarding `N#C/C(=C\c1ccc2ccccc2c1)C(=O)c1ccccc1`, the GI50 is > 85.7 µM (inactive) in [1]; > 100 µM (inactive) in assay [2]; > 100 µM (inactive) in assay [3]; 65 µM in assay [4]; > 100 µM (inactive) in [5]; > 65.8 µM (inactive) in assay [6]. The GI50 in assay [7] was 26.1 µM (inactive); in assay [18] it was > 100 µM (inactive); in [8] it was > 94.6 µM (inactive); in assay [9], > 100 µM (inactive); in [19] it was 51.5 µM (inactive); in assay [10] it was 34.2 µM (inactive). Moreover, the GI50 is 36.2 µM (inactive) in [11]; 63.5 µM (inactive) in assay [12]; > 100 µM (inactive) in [13]; > 63 µM (inactive) in assay [14]; 42.4 µM (inactive) in [15]; > 86.7 µM (inactive) in [16].

For `Cc1nc(-c2cccnc2)sc1C(=O)/C=C/c1ccc(Cl)cc1Cl`, the GI50 in [1] was > 100 µM (inactive); in assay [2], > 100 µM (inactive); in [3] it was > 100 µM (inactive); in [4], over 100 µM; in assay [5], > 100 µM (inactive); in assay [6] it was 76.4 µM (inactive). Also, the GI50 is 95.3 µM (inactive) in [7]; > 100 µM (inactive) in [8]; > 100 µM (inactive) in assay [9]; 31.5 µM (inactive) in assay [10]; 53.8 µM (inactive) in assay [11]; > 100 µM (inactive) in assay [12]. Besides, the GI50 in assay [13] was > 100 µM (inactive); in assay [14] it was > 100 µM (inactive); in [15] it was 71.9 µM (inactive); in assay [16], > 100 µM (inactive).

With `C[C@@](O)(/C=C/[C@H]1CC=CC(=O)O1)[C@@H](C[C@@H](O)\C=C/C=C\C=C\CO)OP(=O)(O)O` [FOSTRIECIN SODIUM], the GI50 in [1] is 23.9 µM (inactive); in [2] it was 9.66 µM (inactive); in assay [3] it was 6.19 µM (inactive); in assay [4] it was 5.74 µM; in assay [5], 5.14 µM (inactive); in assay [6], 1.6 µM (inactive). The GI50 in assay [7] is 2.16 µM (inactive); in [18] it was 2.97 µM (inactive); in assay [20], 22.3 µM (inactive); in assay [8] it was 10.4 µM (inactive); in assay [17], 12.8 µM (inactive); in assay [9], 6.31 µM (inactive). Also, the GI50 in assay [19] is 4.48 µM (inactive); in assay [10], 1.1 µM (active); in [11], 4.11 µM (inactive); in assay [12], 16.4 µM (inactive); in [13], 11.2 µM (inactive); in assay [14], 4.67 µM (inactive). The figures for the GI50 in assay [15] and in assay [16] were 9.29 µM (inactive) and 11 µM (inactive), respectively.
